Patent US10889581B2, “Cyclopropyl fused thiazine derivatives as beta-secretase inhibitors and methods of use” (AMGEN INC., priority 2016, dated 2021)

Columns and labels:
BACE1 [1] = biological target: T1, BACE1 (Homo sapiens (Human), UniProt P56817); test: In vitro BACE1 cell-based assay (Aβ40 in conditioned medium of cells stably expressing APP, HTRF)
Procedure: In Vitro BACE1 Cell-Based Assay
The cell-based assay measures inhibition or reduction of Aβ40 in conditioned medium of test compound treated cells expressing amyloid precursor protein. Cells stably expressing Amyloid Precursor Protein (APP) were plated at a density of 45K cells/well in 384 well plates (Corning/BioCoat 354663). The test compounds were then added to cells in 22-point dose response concentrations with the starting concentration being 62.5 μM. The compounds were diluted from stock solutions in DMSO and the final DMSO concentration of the test compounds on cells was 0.625%. The cells were cultivated overnight at 37° C. and 5% CO2 in DMEM supplemented with 10% FBS. After 24 h of incubation with the test compounds, the conditioned media was collected and the Aβ40 levels were determined using HTRF (Homogeneous Time Resolved Fluorescence). The IC50 of the compound was calculated from the percent of control or percent inhibition of Aβ40 as a function of the concentration of the test compound.
The HTRF to detect Aβ40 was performed in 384 well plates (Costar 3658). The antibody pair that were used to detect Aβ40 from cell supernatants were ConfAb40 antibody (Amgen in-house) and biotinylated 6E10 (BIOLEGEND). As an alternative to ConfAb40, a commercially available antibody, Anti-beta Amyloid 1-40 antibody [BDI350] from Abcam, Cambridge, Mass. 02139-1517 (Product code: ab20068), may be used in this assay. The concentrations were 0.35 μg/mL of ConfAb40 antibody and 1.33 μg/mL of 6E10-biotinylated antibody, as well as 4.5 μg/mL of Streptavidin Allophycocyanin Conjugate (ThermoFisher Scientific) in HTRF Buffer ([…], 1% BSA, 0.5% Tween 20).
The conditioned media was incubated with above antibodies and Streptavidin Allophycocyanin Conjugate for 30-60 minutes at 23° C. The final readout was performed on Envision from PerkinElmer.
Target sequence in this assay (P56817 46-501, species assumed): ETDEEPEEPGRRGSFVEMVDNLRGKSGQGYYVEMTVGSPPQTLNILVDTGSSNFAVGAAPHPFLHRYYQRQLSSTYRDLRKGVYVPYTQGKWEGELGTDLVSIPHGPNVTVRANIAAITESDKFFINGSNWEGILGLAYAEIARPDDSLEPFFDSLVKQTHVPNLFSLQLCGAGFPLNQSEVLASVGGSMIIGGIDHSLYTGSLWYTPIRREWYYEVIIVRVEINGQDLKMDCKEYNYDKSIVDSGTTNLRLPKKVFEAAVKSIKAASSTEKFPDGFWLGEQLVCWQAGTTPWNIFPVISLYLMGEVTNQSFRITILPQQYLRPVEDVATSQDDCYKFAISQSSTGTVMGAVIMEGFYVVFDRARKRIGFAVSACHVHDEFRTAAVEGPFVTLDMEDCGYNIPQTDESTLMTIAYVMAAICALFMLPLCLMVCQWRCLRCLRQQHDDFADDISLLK

BACE1 [2] = biological target: T1, BACE1; test: In vitro enzymatic BACE1 FRET assay; format: biochemical; settings: pH 4.5, read-out: BACE1 Enzyme IC50
Target sequence in this assay (P56817 46-501): as the sequence (P56817 46-501, species assumed) above

human recombinant BACE2 = human recombinant BACE2 (Homo sapiens (Human), UniProt Q9Y5Z0); test: In vitro enzymatic BACE2 FRET assay; format: biochemical; settings: pH 4.5, read-out: BACE2 Enzyme IC50
Recombinant CatD = Recombinant CatD (Homo sapiens (Human), UniProt P07339); test: In vitro enzymatic Cathepsin D (CatD) FRET assay; format: biochemical; settings: pH 3.5, read-out: Cat D Enzyme IC50
[3] = Aβ40, 24 h incubation, read-out: BACE1 Cell IC50

Sequence of Recombinant CatD (P07339 65-412): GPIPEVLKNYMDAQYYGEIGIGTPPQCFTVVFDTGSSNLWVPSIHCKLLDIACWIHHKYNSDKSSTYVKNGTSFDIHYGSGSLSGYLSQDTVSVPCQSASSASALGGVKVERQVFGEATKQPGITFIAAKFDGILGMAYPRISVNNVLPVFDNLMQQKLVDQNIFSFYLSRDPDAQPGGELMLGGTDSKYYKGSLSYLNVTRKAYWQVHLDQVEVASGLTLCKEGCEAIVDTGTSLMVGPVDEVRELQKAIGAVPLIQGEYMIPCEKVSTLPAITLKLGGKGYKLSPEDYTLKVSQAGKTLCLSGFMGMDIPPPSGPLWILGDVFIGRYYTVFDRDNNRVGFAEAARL
Sequence of human recombinant BACE2 (Q9Y5Z0 63-518): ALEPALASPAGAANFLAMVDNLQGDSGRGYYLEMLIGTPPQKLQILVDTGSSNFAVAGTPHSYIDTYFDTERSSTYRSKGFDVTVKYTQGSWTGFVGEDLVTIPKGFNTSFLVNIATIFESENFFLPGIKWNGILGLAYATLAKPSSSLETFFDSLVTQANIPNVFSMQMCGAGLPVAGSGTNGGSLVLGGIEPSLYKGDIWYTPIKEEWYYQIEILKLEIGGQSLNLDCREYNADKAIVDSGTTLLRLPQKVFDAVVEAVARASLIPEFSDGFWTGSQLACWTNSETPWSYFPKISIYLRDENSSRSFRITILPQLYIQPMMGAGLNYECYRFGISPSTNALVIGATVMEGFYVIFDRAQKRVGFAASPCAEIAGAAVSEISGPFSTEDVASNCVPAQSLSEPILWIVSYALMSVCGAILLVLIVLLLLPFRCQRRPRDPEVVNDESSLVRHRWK

IC50 (BACE1 [1]; [3]) [nM] | SMILES | IC50 (BACE1 [2]) [nM] | IC50 (human recombinant BACE2) [nM] | IC50 (Recombinant CatD) [µM] | IC50 (BACE1 [1]) [nM]
139 | CN(C)C(=O)/C=C/[C@]12C[C@H]1[C@@](CF)(c1cc(C#Cc3ccc(C#N)cn3)ccc1F)N=C(N)S2 [Example 112, (E)-3-((1R,5S,6S)-3-amino-5-(5-((5-cyanopyridin-2-yl)ethynyl)-2-fluorophenyl)-5-(fluoromethyl)-2-thia-4-azabicyclo[4.1.0]hept-3-en-1-yl)-N,N-dimethylacrylamide] | 25 | 1590 | 176 | 
 | COC[C@]12CC1[C@@](C)(c1cc(C#Cc3ccc(C#N)cn3)ccc1F)N=C(N)S2 (stereo partly drawn) [Example 133, 6-((3-((1S,5S)-3-amino-1-(methoxymethyl)-5-methyl-2-thia-4-azabicyclo[4.1.0]hept-3-en-5-yl)-4-fluorophenyl)ethynyl)nicotinonitrile] | 97 | 2320 | > 400 | 59
328 | C#Cc1ccc(F)c([C@@]2(C)N=C(N)S[C@@]3(C(=O)N(C)C)C[C@H]32)c1 [Example 123d, (1S,5S,6S)-3-amino-5-(5-ethynyl-2-fluorophenyl)-N,N,5-trimethyl-2-thia-4-azabicyclo[4.1.0]hept-3-ene-1-carboxamide] | 378 | 142 | 50.5 | 
 | Cc1cc(C#N)cnc1C#Cc1ccc(F)c([C@@]2(CF)N=C(N)S[C@@]3(C(=O)N(C)C)C[C@H]32)c1 [Example 127, (1S,5S,6S)-3-amino-5-(5-((5-cyano-3-methylpyridin-2-yl)ethynyl)-2-fluorophenyl)-5-(fluoromethyl)-N,N-dimethyl-2-thia-4-azabicyclo[4.1.0]hept-3-ene-1-carboxamide] | 2 | 77 | 969 | 22
 | COC[C@]12CC1[C@@](C)(c1cc(C#Cc3ncc(C#N)cc3C)ccc1F)N=C(N)S2 (stereo partly drawn) [Example 135, 6-((3-((1S,5S)-3-amino-1-(methoxymethyl)-5-methyl-2-thia-4-azabicyclo[4.1.0]hept-3-en-5-yl)-4-fluorophenyl)ethynyl)-5-methylnicotinonitrile] | 23 | 1460 | > 400 | 33
72 | N#Cc1ccc(C#Cc2ccc(F)c([C@@]3(CF)N=C(N)S[C@@]4(/C=C/C(=O)N5CCOCC5)C[C@H]43)c2)nc1 [Example 111, 6-((3-((1R,5S,6S)-3-amino-5-(fluoromethyl)-1-((E)-3-morpholino-3-oxoprop-1-en-1-yl)-2-thia-4-azabicyclo[4.1.0]hept-3-en-5-yl)-4-fluorophenyl)ethynyl)nicotinonitrile] | 19 | 405 | 300 | 
29 | NC1=N[C@](CF)(c2cc(C#Cc3ncc(Cl)cn3)ccc2F)[C@@H]2C[C@]2(/C=C/C(=O)N2CCOCC2)S1 [Example 117, (E)-3-((1R,5S,6S)-3-amino-5-(5-((5-chloropyrimidin-2-yl)ethynyl)-2-fluorophenyl)-5-(fluoromethyl)-2-thia-4-azabicyclo[4.1.0]hept-3-en-1-yl)-1-morpholinoprop-2-en-1-one] | 21 | 12 | 169 | 
 | Cc1cc(C#N)cnc1C#Cc1cnc(F)c([C@@]2(C)N=C(N)S[C@@]3(C(=O)N4CCOCC4)CC32)c1 (stereo partly drawn) [Example 136, 6-((5-((1S,5S)-3-amino-5-methyl-1-(morpholine-4-carbonyl)-2-thia-4-azabicyclo[4.1.0]hept-3-en-5-yl)-6-fluoropyridin-3-yl)ethynyl)-5-methylnicotinonitrile] | 37 | 974 | > 400 | 181
75 | Cc1cc(C#N)cnc1C#Cc1ccc(F)c([C@@]2(C)N=C(N)S[C@@]3(C#N)C[C@H]32)c1 [Example 126, (1S,5S,6S)-3-amino-5-(5-((5-cyano-3-methylpyridin-2-yl)ethynyl)-2-fluorophenyl)-5-methyl-2-thia-4-azabicyclo[4.1.0]hept-3-ene-1-carbonitrile] | 21 | 617 | 268 | 
153 | N#Cc1ccc(C#Cc2ccc(F)c([C@@]3(CF)N=C(N)S[C@@]4(CC(N)=O)C[C@H]43)c2)nc1 [Example 113, 2-((1R,5S,6S)-3-amino-5-(5-((5-cyanopyridin-2-yl)ethynyl)-2-fluorophenyl)-5-(fluoromethyl)-2-thia-4-azabicyclo[4.1.0]hept-3-en-1-yl)acetamide] | 116 | 3760 | 1420 | 
153 | N#Cc1cnc(C#Cc2ccc(F)c([C@@]3(CF)N=C(N)S[C@@]4(/C=C/C(=O)N5CCOCC5)C[C@H]43)c2)c(F)c1 [Example 124, 6-((3-((1R,5S,6S)-3-amino-5-(fluoromethyl)-1-((E)-3-morpholino-3-oxoprop-1-en-1-yl)-2-thia-4-azabicyclo[4.1.0]hept-3-en-5-yl)-4-fluorophenyl)ethynyl)-5-fluoronicotinonitrile] | 49 | 37 | 335 | 
1900 | N#Cc1cnc(C#Cc2ccc(F)c([C@@]3(CF)N=C(N)S[C@@]4(/C=C/C(=O)N5CCOCC5)C[C@H]43)c2)nc1 [Example 121, 2-((3-((1R,5S,6S)-3-amino-5-(fluoromethyl)-1-((E)-3-morpholino-3-oxoprop-1-en-1-yl)-2-thia-4-azabicyclo[4.1.0]hept-3-en-5-yl)-4-fluorophenyl)ethynyl)pyrimidine-5-carbonitrile] | 9 | 47 | 143 | 

SMILES | IC50 (BACE1 [1]; [3]) [nM] | IC50 (BACE1 [2]) [nM] | IC50 (human recombinant BACE2) [nM] | IC50 (Recombinant CatD) [µM] | IC50 (BACE1 [1]) [nM]
CC#CCOc1ccc(C#Cc2ccc(F)c([C@@]3(CF)N=C(N)S[C@@]4(CF)C[C@H]43)c2)nc1 [Example 105, (1S,5S,6S)-5-(5-((5-(but-2-yn-1-yloxy)pyridin-2-yl)ethynyl)-2-fluorophenyl)-1,5-bis(fluoromethyl)-2-thia-4-azabicyclo[4.1.0]hept-3-en-3-amine] | 746 | 96 | 10300 | 500 | 
N#Cc1cnc(C#Cc2ccc(F)c([C@@]3(CF)N=C(N)S[C@@]4(CF)C[C@H]43)c2)s1 [Example 109, 2-((3-((1S,5S,6S)-3-amino-1,5-bis(fluoromethyl)-2-thia-4-azabicyclo[4.1.0]hept-3-en-5-yl)-4-fluorophenyl)ethynyl)thiazole-5-carbonitrile] | 1110 | 57 | 92 | 705 | 
NC1=N[C@](CF)(c2cc(C#Cc3ccc(OCc4ncco4)cn3)ccc2F)[C@@H]2C[C@]2(CF)S1 [Example 108, (1S,5S,6S)-5-(2-fluoro-5-((5-(oxazol-2-ylmethoxy)pyridin-2-yl)ethynyl)phenyl)-1,5-bis(fluoromethyl)-2-thia-4-azabicyclo[4.1.0]hept-3-en-3-amine] | 2020 | 735 | 14100 | 784 | 
NC1=N[C@](CF)(c2cc(C#Cc3ccc(Cl)cn3)ccc2F)[C@@H]2C[C@]2(CF)S1 [Example 102, (1S,5S,6S)-5-(5-((5-chloropyridin-2-yl)ethynyl)-2-fluorophenyl)-1,5-bis(fluoromethyl)-2-thia-4-azabicyclo[4.1.0]hept-3-en-3-amine] | 685 | 182 | 445 | 673 | 
N#Cc1ccc(C#Cc2ccc(F)c([C@@]3(CF)N=C(N)S[C@@]4(/C=C/C(=O)N5CCOCC5)C[C@H]43)c2)cc1 [Example 122, 4-((3-((1R,5S,6S)-3-amino-5-(fluoromethyl)-1-((E)-3-morpholino-3-oxoprop-1-en-1-yl)-2-thia-4-azabicyclo[4.1.0]hept-3-en-5-yl)-4-fluorophenyl)ethynyl)benzonitrile] | 49 | 10 | 281 | 84.3 | 
Cc1cc(OCc2ncco2)cnc1C#Cc1ccc(F)c([C@@]2(C)N=C(N)S[C@@]3(C(=O)N(C)C)C[C@H]32)c1 [Example 131, (1S,5S,6S)-3-amino-5-(2-fluoro-5-((3-methyl-5-(oxazol-2-ylmethoxy)pyridin-2-yl)ethynyl)phenyl)-N,N,5-trimethyl-2-thia-4-azabicyclo[4.1.0]hept-3-ene-1-carboxamide] | 53 | 41 | 2180 | 995 | 
